Data taken from patent US8367668B2, “Pyridazinone derivatives” (Merck Patent Gesellschaft mit Beschränkter Haftung, priority 2007, dated 2013).
pIC50: −log10 of the molar value.

Biological target: T1, Met kinase (Homo sapiens, UniProt P08581)
T1 construct: 6His (N); purchased Upstate 14-526; host or cells: Sf21 insect cells (S. frugiperda), baculovirus
Test: Met kinase inhibition (enzyme assay), flashplate method
Assay type: biochemical
Source text: Measurement of Met Kinase Activity
According to the manufacturer's data (Met, active, upstate, catalogue No. 14-526), Met kinase is expressed for the purposes of protein production in insect cells (Sf21; S. frugiperda) and subsequent affinity-chromatographic purification as “N-terminal 6His-tagged” recombinant human protein in a baculovirus expression vector.
The kinase activity can be measured using various available measurement systems. In the scintillation proximity method (Sorg et al., J. of Biomolecular Screening, 2002, 7, 11-19), the flashplate method or the filter binding test, the radioactive phosphorylation of a protein or peptide as substrate is measured using radioactively labelled ATP (^32P-ATP, ^33P-ATP). In the case of the presence of an inhibitory compound, a reduced radioactive signal, or none at all, can be detected. Furthermore, homogeneous time-resolved fluorescence resonance energy transfer (HTR-FRET) and fluoroescence polarisation (FP) technologies can be used as assay methods (Sills et al., J. of Biomolecular Screening, 2002, 191-214).
Flashplate Method (Met Kinase)
The test plates used are 96-well Flashplate® microtitre plates from Perkin Elmer (Cat. No. SMP200). The components of the kinase reaction described below are pipetted into the assay plate. The Met kinase and the substrate poly Ala-Glu-Lys-Tyr, (pAGLT, 6:2:5:1), are incubated for 3 hrs at room temperature with radioactively labelled ^33P-ATP in the presence and absence of test substances in a total volume of 100 μl. The reaction is terminated using 150 μl of a 60 mM EDTA solution. After incubation for a further 30 min at room temperature, the supernatants are filtered off with suction, and the wells are washed three times with 200 μl of 0.9% NaCl solution each time. The measurement of the bound radioactivity is carried out by means of a scintillation measuring instrument (Topcount NXT, Perkin-Elmer).
The full value used is the inhibitor-free kinase reaction. This should be approximately in the range 6000-9000 cpm. The pharmacological zero value used is staurosporin in a final concentration of 0.1 mM. The inhibitory values (IC50) are determined using the RS1_MTS program.
Kinase reaction conditions per well: • 30 μl of assay buffer • 10 μl of substance to be tested in assay buffer with 10% of DMSO • 10 μl of ATP (final concentration 1 μM cold, 0.35 μCi of ^33P-ATP) • 50 μl of Met kinase/substrate mixture in assay buffer; • (10 ng of enzyme/well, 50 ng of pAGLT/well)
50 mM HEPES • 3 mM magnesium chloride • 3 μM sodium orthovanadate • 3 mM manganese(II) chloride • 1 mM dithiothreitol (DTT)
pH=7.5 (to be set using sodium hydroxide)
60 mM Titriplex III (EDTA)
Met kinase: Upstate, Cat. No. 14-526, Stock 1 μg/10 μl; spec. activity 954 U/mg;
Poly-Ala-Glu-Lys-Tyr, 6:2:5:1: Sigma Cat. No. P1152
Pharmacological Data Met Kinase Inhibitions (Enzyme Assay)

T1 sequence (P08581 974-1390 limits assumed): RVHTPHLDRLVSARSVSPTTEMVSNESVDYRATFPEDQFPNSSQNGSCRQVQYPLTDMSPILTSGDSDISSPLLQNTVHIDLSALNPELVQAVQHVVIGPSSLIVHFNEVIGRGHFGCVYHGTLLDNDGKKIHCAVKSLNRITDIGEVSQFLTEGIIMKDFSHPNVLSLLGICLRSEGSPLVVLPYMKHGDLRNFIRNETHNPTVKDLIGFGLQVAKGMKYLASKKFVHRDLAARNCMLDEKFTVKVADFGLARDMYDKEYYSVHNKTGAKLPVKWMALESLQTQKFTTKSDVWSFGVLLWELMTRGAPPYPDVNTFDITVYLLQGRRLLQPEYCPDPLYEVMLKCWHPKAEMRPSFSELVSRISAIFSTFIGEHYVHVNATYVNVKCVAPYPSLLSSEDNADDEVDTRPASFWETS

pIC50, 6.00 to 8.00:
CCOC(=O)Nc1cccc(Cn2nc(-c3cccc(C(=O)NCCCNC(=O)OC(C)(C)C)c3)ccc2=O)c1 [A44]
CCOC(=O)Nc1cccc(Cn2nc(-c3cccc(C(=O)NCCNC(=O)OC(C)(C)C)c3)ccc2=O)c1 [A45]
CCOC(=O)Nc1cccc(Cn2nc(-c3cccc(C(=O)NCCCCN(C)C)c3)ccc2=O)c1 [A46]
CCOC(=O)Nc1cccc(Cn2nc(-c3cccc(C(=O)NCCCN(C)C)c3)ccc2=O)c1 [A47]
CCOC(=O)Nc1cccc(Cn2nc(-c3cccc(C(=O)NCCN(C)C)c3)ccc2=O)c1 [A48]
CCOC(=O)Nc1cccc(Cn2nc(-c3cccc(C(=O)NCCO)c3)ccc2=O)c1 [A49]
CCOC(=O)Nc1cccc(Cn2nc(-c3cccc(C(=O)NCCOC)c3)ccc2=O)c1 [A50]
CCOC(=O)Nc1cccc(Cn2nc(-c3cccc(C(=O)NCCCOC)c3)ccc2=O)c1 [A51]
CCOC(=O)Nc1cccc(Cn2nc(-c3cccc(C(=O)NCCCO)c3)ccc2=O)c1 [A52]
CCOC(=O)Nc1cccc(Cn2nc(-c3cccc(C(=O)NCCCCO)c3)ccc2=O)c1 [A53]
CCOC(=O)Nc1cccc(Cn2nc(-c3ccc(CC(=O)NCCCCNC(=O)OC(C)(C)C)cc3)ccc2=O)c1 [A54, ethyl[3-(3-{4-[(4-tert-butoxycarbonylaminobutyl-carbamoyl)methyl]phenyl}-6-oxo-6H-pyridazin-1-ylmethyl)phenyl]-carbamate]
CCOC(=O)Nc1cccc(Cn2nc(-c3ccc(CC(=O)NCCNC(=O)OC(C)(C)C)cc3)ccc2=O)c1 [A55]
CCOC(=O)Nc1cccc(Cn2nc(-c3ccc(CC(=O)NCCCCN(C)C)cc3)ccc2=O)c1 [A56]
CCOC(=O)Nc1cccc(Cn2nc(-c3ccc(CC(N)=O)cc3)ccc2=O)c1 [A57]
CCOC(=O)Nc1cccc(Cn2nc(-c3cccc(CC(=O)NCCCNC(=O)OC(C)(C)C)c3)ccc2=O)c1 [A61]
CCOC(=O)Nc1cccc(Cn2nc(-c3cccc(CC(=O)NCCNC(=O)OC(C)(C)C)c3)ccc2=O)c1 [A62]
CCOC(=O)Nc1cccc(Cn2nc(-c3cccc(CC(=O)NCCCCN(C)C)c3)ccc2=O)c1 [A63]
CCOC(=O)Nc1cccc(Cn2nc(-c3cccc(CC(=O)NCCCN(C)C)c3)ccc2=O)c1 [A64]
CCOC(=O)Nc1cccc(Cn2nc(-c3cccc(CC(=O)NCCN(C)C)c3)ccc2=O)c1 [A65]
CCOC(=O)Nc1cccc(Cn2nc(-c3cccc(CC(=O)NCCCO)c3)ccc2=O)c1 [A66]
CCOC(=O)Nc1cccc(Cn2nc(-c3cccc(CC(=O)N(C)CCO)c3)ccc2=O)c1 [A67]
CCOC(=O)Nc1cccc(Cn2nc(-c3cccc(CC(=O)NCCOC)c3)ccc2=O)c1 [A68]
CCOC(=O)Nc1cccc(Cn2nc(-c3cccc(CC(N)=O)c3)ccc2=O)c1 [A69]
CCOC(=O)Nc1cccc(Cn2nc(-c3cccc(CC(=O)NCCCOC)c3)ccc2=O)c1 [A70]
CCOC(=O)Nc1cccc(Cn2nc(-c3cccc(CC(=O)NCCCCO)c3)ccc2=O)c1 [A71]
CCOC(=O)Nc1cccc(Cn2nc(-c3cccc(CC(=O)NCCO)c3)ccc2=O)c1 [A72]
CCOC(=O)Nc1cccc(Cn2nc(-c3ccc(CNC(=O)CNC(C)=O)cc3)ccc2=O)c1 [A75, ethyl[3-(3-{4-[(2-acetylaminoacetylamino)methyl]phenyl}-6-oxo-6H-pyridazin-1-ylmethyl)phenyl]carbamate]
CCOC(=O)Nc1cccc(Cn2nc(-c3ccc(CNC(=O)Cn4ccccc4=O)cc3)ccc2=O)c1 [A76]
CCOC(=O)Nc1cccc(Cn2nc(-c3ccc(CNC(=O)Cc4nnn[nH]4)cc3)ccc2=O)c1 [A77]
CCOC(=O)Nc1cccc(Cn2nc(-c3ccc(CNC(=O)CCNC=O)cc3)ccc2=O)c1 [A78]
CCOC(=O)Nc1cccc(Cn2nc(-c3ccc(CNC(=O)Cn4cnnn4)cc3)ccc2=O)c1 [A79]
CCOC(=O)Nc1cccc(Cn2nc(-c3ccc(CNC(=O)CN(C)C)cc3)ccc2=O)c1 [A80]
CCOC(=O)Nc1cccc(Cn2nc(-c3ccc(CNC(=O)COC)cc3)ccc2=O)c1 [A81]
CCOC(=O)Nc1cccc(Cn2nc(-c3ccc(CNC(=O)CN4CCOCC4)cc3)ccc2=O)c1 [A82]
CCOC(=O)Nc1cccc(Cn2nc(-c3ccc(CNC(=O)CCN(C)C)cc3)ccc2=O)c1 [A83]
CCOC(=O)Nc1cccc(Cn2nc(-c3ccc(CNC(=O)CCOC)cc3)ccc2=O)c1 [A84]
CCOC(=O)Nc1cccc(Cn2nc(-c3ccc(CNC(=O)CO)cc3)ccc2=O)c1 [A85]
CCOC(=O)Nc1cccc(Cn2nc(-c3ccc(CNC(=O)CN4CCN(C(=O)OC(C)(C)C)CC4)cc3)ccc2=O)c1 [A86]
CCOC(=O)Nc1cccc(Cn2nc(-c3ccc(CNC(=O)CCN4CCCCC4)cc3)ccc2=O)c1 [A87]
CCOC(=O)Nc1cccc(Cn2nc(-c3cccc(CNC(=O)CNC(C)=O)c3)ccc2=O)c1 [A93]
CCOC(=O)Nc1cccc(Cn2nc(-c3cccc(CNC(=O)Cn4ccccc4=O)c3)ccc2=O)c1 [A94]
CCOC(=O)Nc1cccc(Cn2nc(-c3cccc(CNC(=O)Cn4cnnn4)c3)ccc2=O)c1 [A95]
CCOC(=O)Nc1cccc(Cn2nc(-c3cccc(CNC(=O)Cc4nnn[nH]4)c3)ccc2=O)c1 [A96]
CCOC(=O)Nc1cccc(Cn2nc(-c3cccc(CNC(=O)CNC(=O)OC(C)(C)C)c3)ccc2=O)c1 [A97]
CCOC(=O)Nc1cccc(Cn2nc(-c3cccc(CNC(=O)CN4CCOCC4)c3)ccc2=O)c1 [A98]
CCOC(=O)Nc1cccc(Cn2nc(-c3cccc(CNC(=O)COC)c3)ccc2=O)c1 [A99]
CCOC(=O)Nc1cccc(Cn2nc(-c3cccc(CNC(=O)CCOC)c3)ccc2=O)c1 [A100]
CCOC(=O)Nc1cccc(Cn2nc(-c3cccc(CNC(=O)CO)c3)ccc2=O)c1 [A101]
CCOC(=O)Nc1cccc(Cn2nc(-c3cccc(CNC(=O)CN(C)C)c3)ccc2=O)c1 [A102]
CCOC(=O)Nc1cccc(Cn2nc(-c3cccc(CNC(=O)CCN(C)C)c3)ccc2=O)c1 [A103]
CCOC(=O)Nc1cccc(Cn2nc(-c3cccc(CNC(=O)CCNC=O)c3)ccc2=O)c1 [A104]
CCOC(=O)Nc1cccc(Cn2nc(-c3cccc(CNC(=O)CCO)c3)ccc2=O)c1 [A105]
CCOC(=O)Nc1cccc(Cn2nc(-c3cccc(CNC(=O)CN4CCN(C)CC4)c3)ccc2=O)c1 [A106]
CCOC(=O)Nc1cccc(Cn2nc(-c3cccc(CNC(=O)CCN(CC)CC)c3)ccc2=O)c1 [A107]
CCOC(=O)Nc1cccc(Cn2nc(-c3cccc(CNC(=O)CCN4CCN(C(=O)OC(C)(C)C)CC4)c3)ccc2=O)c1 [A108]
CCOC(=O)Nc1cccc(Cn2nc(-c3cccc(CNC(=O)CCN4CCCCC4)c3)ccc2=O)c1 [A109]
CCOC(=O)Nc1cccc(Cn2nc(-c3cccc(CNC(=O)CN4CCCCC4)c3)ccc2=O)c1 [A110]
